Values quoted from earlier work, collected in patent US6436936B1, “Methods and compositions for treating disorders, using optically pure (+) zopiclone” (Sepracor Inc., priority 1991, dated 2002).

System: mice
Conditions: reference agents, 3 per group, ten parameters scored, total score <40 of 60 denotes behavioral depression

Structure (SMILES)	ED100
CN1C(=O)CN=C(c2ccccc2)c2cc(Cl)ccc21 [diazepam]	50 mg/kg
CCC1(c2ccccc2)CCC(=O)NC1=O (stereo not drawn) [glutethimide]	300 mg/kg
O=C(CCCN1CCC(O)(c2ccc(Cl)cc2)CC1)c1ccc(F)cc1 [haloperidol]	10 mg/kg
CCCC(C)(COC(N)=O)COC(N)=O [meprobamate]	300 mg/kg
CCCC(C)C1(CC)C(=O)NC(=O)NC1=O (stereo not drawn) [pentobarbital]	100 mg/kg
COC(=O)[C@H]1[C@H]2C[C@@H]3c4[nH]c5cc(OC)ccc5c4CCN3C[C@H]2C[C@@H](OC(=O)c2cc(OC)c(OC)c(OC)c2)[C@@H]1OC [reserpine]	50 mg/kg
